Test results as given in PubChem BioAssay (NCI).
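A five-concentration, 48-hour dose response in 96-well plates underlies each endpoint, interpolated linearly between surrounding concentrations. At the TGI there is no net growth.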

What was measured:
Experiment in all cases: NCI anticancer screen, dose series, 48 h
[1] = system: HS 578T breast
[2] = system: CAKI-1 renal
[3] = system: SK-MEL-28 melanoma
[4] = system: IGROV1 ovarian
[5] = system: OVCAR-3 ovarian
[6] = system: MOLT-4 leukemia
[7] = system: TK-10 renal
[8] = system: A549 NSCLC
[9] = system: COLO 205 colon
[10] = system: SK-MEL-5 melanoma

CCOC(=O)c1cc(-n2nnc3ccccc32)cn1C
TGI [1]: > 10 µM | TGI [2]: > 10 µM | TGI [3]: > 10 µM | TGI [4]: > 10 µM | TGI [5]: > 10 µM | TGI [6]: > 10 µM | TGI [7]: > 10 µM | TGI [8]: > 10 µM | TGI [9]: > 10 µM | TGI [10]: > 10 µM

OC1c2ccccc2CCC1CN1CCN(CCOC(c2ccc(F)cc2)c2ccc(F)cc2)CC1 (stereo not given)
TGI [1]: 45.8 µM | TGI [2]: > 100 µM | TGI [3]: 26.6 µM | TGI [4]: 61.9 µM | TGI [5]: 42.6 µM | TGI [6]: > 100 µM | TGI [7]: 42.4 µM | TGI [8]: > 100 µM | TGI [9]: 3.44 µM | TGI [10]: 16.5 µM

COC(=O)C1CCN(C(=O)OC(C)(C)C)CC1
TGI [1]: > 100 µM | TGI [2]: > 100 µM | TGI [3]: > 100 µM | TGI [4]: > 100 µM | TGI [5]: > 100 µM | TGI [6]: > 100 µM | TGI [7]: > 100 µM | TGI [8]: > 100 µM | TGI [9]: > 100 µM | TGI [10]: > 100 µM

COC(=O)/C=C\C(C#N)(C#N)N=Cc1cccc(OC)c1
TGI [1]: 38 µM | TGI [2]: 5.17 µM | TGI [3]: 29.4 µM | TGI [4]: 24 µM | TGI [5]: 26.1 µM | TGI [6]: 17.7 µM | TGI [7]: 4.78 µM | TGI [8]: 35.1 µM | TGI [9]: 5.06 µM | TGI [10]: 31.4 µM

COc1ccc([N+](=O)[O-])c2c(NCCCN(C)C)ccnc12
TGI [1]: 34.6 µM | TGI [2]: 42.9 µM | TGI [3]: > 100 µM | TGI [4]: 4.85 µM | TGI [5]: 6.78 µM | TGI [6]: 8.12 µM | TGI [7]: 70.5 µM | TGI [8]: 23.8 µM | TGI [9]: 7.17 µM | TGI [10]: 5.22 µM

CSC1NC(c2ccccc2)=C(C#N)C(=O)N1C1OCC(OC(C)=O)C(OC(C)=O)C1OC(C)=O (stereo not given)
TGI [1]: > 100 µM | TGI [2]: > 100 µM | TGI [3]: > 100 µM | TGI [4]: > 100 µM | TGI [5]: > 100 µM | TGI [6]: > 100 µM | TGI [7]: > 100 µM | TGI [8]: > 100 µM | TGI [9]: > 100 µM | TGI [10]: > 100 µM

COCCN(CCNC(=O)c1cccc2c(N)c3cccc(C)c3nc12)CCOC
TGI [1]: 9.86 µM | TGI [2]: 4.49 µM | TGI [3]: > 41.1 µM | TGI [4]: 7.25 µM | TGI [5]: 15.2 µM | TGI [6]: 2.38 µM | TGI [7]: 16.6 µM | TGI [8]: 8.48 µM | TGI [9]: 2.13 µM | TGI [10]: 2.65 µM

CC1(c2sccc2Cl)CC(c2sccc2Cl)=C(C#N)C(=C(C#N)C#N)N1 (stereo not given)
TGI [1]: 48.5 µM | TGI [2]: 36.1 µM | TGI [3]: 34.8 µM | TGI [4]: 42.4 µM | TGI [5]: 29.8 µM | TGI [6]: > 100 µM | TGI [7]: 31.6 µM | TGI [8]: 75.6 µM | TGI [9]: 41.8 µM | TGI [10]: 33.3 µM

CC(O)C1(CNc2cc(Cl)nc(N)n2)CCCCC1 (stereo not given)
TGI [1]: > 100 µM | TGI [2]: > 100 µM | TGI [3]: > 100 µM | TGI [4]: > 100 µM | TGI [5]: > 100 µM | TGI [6]: > 100 µM | TGI [7]: > 100 µM | TGI [8]: > 100 µM | TGI [9]: > 100 µM | TGI [10]: > 100 µM

O=C(CN(C(=O)OC12CC3CC(CC(C3)C1)C2)C(=O)OC12CC3CC(CC(C3)C1)C2)Oc1ccc([N+](=O)[O-])cc1
TGI [1]: > 100 µM | TGI [2]: > 100 µM | TGI [3]: > 100 µM | TGI [4]: > 100 µM | TGI [5]: > 100 µM | TGI [6]: > 100 µM | TGI [7]: > 100 µM | TGI [8]: > 100 µM | TGI [9]: > 100 µM | TGI [10]: > 100 µM

CCCCCCCCCCCCOP(=O)(O)OP(=O)(O)OCC1OC(n2ccc(N)nc2=O)CC1O (stereo not given)
TGI [1]: > 100 µM | TGI [2]: > 100 µM | TGI [3]: > 100 µM | TGI [4]: > 100 µM | TGI [5]: > 100 µM | TGI [6]: > 100 µM | TGI [7]: > 100 µM | TGI [8]: > 100 µM | TGI [9]: > 100 µM | TGI [10]: > 100 µM

Cc1cc(S(=O)(=O)N2CCNNC2=O)c(S)cc1Cl
TGI [1]: > 100 µM | TGI [2]: > 100 µM | TGI [3]: 59.6 µM | TGI [4]: > 100 µM | TGI [5]: > 100 µM | TGI [6]: > 100 µM | TGI [7]: > 100 µM | TGI [8]: > 100 µM | TGI [9]: > 100 µM | TGI [10]: > 100 µM

S=C(N/N=C(\c1ccccc1)c1ccccn1)NC1CCCCC1
TGI [1]: > 100 µM | TGI [2]: > 100 µM | TGI [3]: > 100 µM | TGI [4]: > 100 µM | TGI [5]: > 100 µM | TGI [6]: > 100 µM | TGI [7]: > 100 µM | TGI [8]: > 100 µM | TGI [9]: > 100 µM | TGI [10]: > 100 µM

CCCCn1c(CSc2ccc(Cl)cc2)c(C(=O)OCC)c2cc(OC)c(Br)cc21
TGI [1]: > 100 µM | TGI [2]: 75.9 µM | TGI [3]: > 100 µM | TGI [4]: > 100 µM | TGI [5]: > 100 µM | TGI [6]: > 100 µM | TGI [7]: > 100 µM | TGI [8]: > 100 µM | TGI [9]: > 100 µM | TGI [10]: > 100 µM

COc1cccc(/C=N/NC(=O)CSCC(=O)N/N=C/c2cccc(OC)c2OC)c1OC
TGI [1]: > 100 µM | TGI [2]: > 100 µM | TGI [3]: > 100 µM | TGI [4]: > 100 µM | TGI [5]: > 100 µM | TGI [6]: > 100 µM | TGI [7]: > 100 µM | TGI [8]: > 100 µM | TGI [9]: > 100 µM | TGI [10]: > 100 µM

c1cc(-c2ccc(-c3ccc(-c4ccc(-c5ccncc5)o4)cc3)o2)ccn1
TGI [1]: > 100 µM | TGI [2]: 46.7 µM | TGI [3]: 44.6 µM | TGI [4]: 35.8 µM | TGI [5]: 63.8 µM | TGI [6]: 25.7 µM | TGI [7]: 31.2 µM | TGI [8]: 35.7 µM | TGI [9]: 30.2 µM | TGI [10]: 26 µM
